Tested on: selected test plants
Test: Post-emergence action in a different test arrangement (Table B3)
Format: in vivo
Parameters: key to Post-emergence action (different test arrangement), Nasturtium / Post-emergence action (different test arrangement), Stellaria / Post-emergence action (different test arrangement), Solanum: 10=total damage; 0=no action; Ratings of from 10 to 7 (especially from 10 to 8) indicate good to very good herbicidal action
Conditions: 250 g a.i./ha

Structure (SMILES)	Post-emergence action (different test arrangement), Amaranthus	Post-emergence action (different test arrangement), Nasturtium	Post-emergence action (different test arrangement), Solanum	Post-emergence action (different test arrangement), Stellaria
O=C1CCCC(O)=C1C(=O)c1ccc(C(F)(F)F)nc1CN1CN(c2ccc(Cl)cc2)CC1=O [Compound A1.237]	9	9	10	7
O=C1CCCC(O)=C1C(=O)c1ccc(C(F)(F)F)nc1CN1CCC1=O [Compound A1.221]	9	10	9	9
Cn1ncc(C(=O)c2ccc(C(F)(F)F)nc2CN2CN(c3ccc(Cl)cc3)CC2=O)c1O [Compound B1.238]	9	8	9	7
CC1CCC(=O)N1Cc1nc(C(F)(F)F)ccc1C(=O)C1=C(O)CCCC1=O (stereo not shown) [Compound A1.223]	8	10	9	9
Cn1c(=O)n(Cc2nc(C(F)(F)F)ccc2C(=O)C2=C(O)CCCC2=O)c(=O)n1C [Compound A1.211]	9	10	9	7
O=C1CCCC(O)=C1C(=O)c1ccc(C(F)(F)F)nc1COCCN1CCCC1=O [Compound A1.220]	9	10	9	10
Cc1nn(Cc2nc(C(F)(F)F)ccc2C(=O)C2=C(O)CCCC2=O)c(=O)o1 [Compound A1.097, 3-[3-(2-Hydroxy-6-oxo-cyclohex-1-enecarbonyl)-6-trifluoromethyl-pyridin-2-ylmethyl]-5-methyl-3H-[1.3.4]oxadiazol-2-one]	9	10	9	9

From patent US20050256003A1, “Novel herbicides” (priority 2002, published 2005)
